Legend:
[1] = system: sectioned Achilles tendons; assay: Healing of sectioned Achilles tendons in the rat, urogastrone injected twice daily at the tendon lesion (experiment 1, Table 1); format: in vivo
Method: (§1) Male Wistar rats (240 g.) were subjected under general anaesthesia to partial tendonotomy of the left Achilles tendon, the small skin wound was then sutured and the animals allowed to recover. […] Normal saline was injected into a control group of operated animals (group [C]). […] After termination the scar tissue was removed from the point of insertion into the calcaneus bone to the point of merger of the tendon into the muscle mass. Weights of the scar tissue were measured after drying and defatting as described in Greenwald, S. E. and Berry, C. L. Cardiovasc. Res. 12,364-372 (1978). The collagen content was obtained from hydroxyproline measurements as described in Grant, R. A. J. Clin. Path. 17, 685-686 (1964) on the tissue after proteolytic (see Smith, R. L., Gilberson, E., Koliatsu, N., Merchant, T. and Schurman, D. J. Analyst. Biochem. 103, 191-200 (1980)) and alkaline (see Huzar, G., Maiocco, J. and Naftolin, F. Analyt. Biochem. 105 424-439 (1980)) digestion. The DNA content of the digests was determined using a sensitive fluorimetric technique (as described in Hinegardner, R. T. Analyt. Biochem. 39, 197-201). The results are ±SEM and were analyzed by Student' s t test. Figures in parentheses indicate the numbers of animals used in each group.

[2] = system: Intact tendon; assay: Urogastrone injected twice daily into the corresponding region of the unoperated leg (intact tendon, group B, Table 1); format: in vivo, rat; settings: for Collagen / DNA / dry wt: intact tendon plus urogastrone 20 μg./kg. twice daily, ±SEM
Method: as §1

[3] = system: sectioned Achilles tendons; assay: Longer term effects of urogastrone injections on healing of sectioned Achilles tendons in the rat (experiment 2, Table 2); format: in vivo; settings: for Lesion DNA / Lesion dry wt / Lesion Collagen: ±SEM
Method: as §1

[4] = system: sectioned Achilles tendon; assay: Graded doses of urogastrone on healing of sectioned Achilles tendons in rats (Example 2, FIGS. 3 and 4); format: in vivo, rat; settings: 15 days after surgery
Method: The graded doses were injected twice daily into the immediate vicinity of the sectioned tendon.
FIG. 4 corresponds to FIG. 3, but represents graphically the collagen content of the repair lesions at the injected zone 15 days after surgery rather than the dry weight of the scar tissue formed at the said zone 15 days after surgery.
The rats employed were male Wistar rats (240 g) and the Achilles tendons were sectioned as described in Example 1.
Graded doses of urogastrone were given twice daily by injection into the immediate vicinity of the sectioned Achilles tendon in rats. […] FIGS. 3 and 4 present the dry weights and collagen contents respectively of the injected zones 15 days after surgery.

[5] = system: intact tendons; assay: Urogastrone 100 ug/kg injected twice daily into intact tendons in unoperated rats (Example 2); format: in vivo, rat; settings: highest dose (100 ug./kg. twice daily); 15 days
[6] = system: acid secretion in the stomach; settings: administered parenterally; known; cited from earlier work
[7] = 5 days after surgery, sectioned tendon, 20 μg./kg. twice daily at lesion, ±SEM, p < 0.001 vs saline
[8] = 9 days after surgery, sectioned tendon, 20 μg./kg. twice daily at lesion, ±SEM, p < 0.001 vs saline
[9] = first five days following surgery, statistically highly significant
[10] = 30 days after surgery, urogastrone days 1-15 then 15 days without treatment, NS vs saline

Urogastrone
Lesion DNA [1, 7]: 517 ± 12 µg | Lesion dry wt [1, 7]: 42.9 ± 2.0 mg | Lesion DNA [1, 8]: 653 ± 20 µg | Lesion dry wt [1, 8]: 61.1 ± 2.0 mg | Lesion Collagen ([1]; 9 days after surgery, sectioned tendon, 20 μg./kg. twice daily at lesion, ±SEM, p < 0.05 vs saline): 16.8 ± 0.9 mg | Lesion DNA ([1]; 15 days after surgery, sectioned tendon, 20 μg./kg. twice daily at lesion, ±SEM, NS vs saline): 556 ± 23 µg | Lesion dry wt ([1]; 15 days after surgery, sectioned tendon, 20 μg./kg. twice daily at lesion, ±SEM, p < 0.001 vs saline): 53.3 ± 2.8 mg | Apparent increase in DNA content of urogastrone-treated lesions ([1]; day 15, not significantly different from the control value): 8% | Increase in collagen over saline-injected controls ([1]; fifteen days after surgery): 28% | Increase in dry weight over saline-injected controls ([1]; fifteen days after surgery): 24% | Increase in collagen content of scar tissue compared with saline-injected controls [1, 9]: 61% | Increase in dry weight of scar tissue compared with saline-injected controls [1, 9]: 38% | Collagen ([2]; 5 days, NS vs intact tendon): 6.1 ± 0.3 mg | DNA ([2]; 5 days, NS vs intact tendon): 94.3 ± 8.5 µg | dry wt ([2]; 5 days, NS vs intact tendon): 12.7 ± 1.6 mg | Collagen ([2]; 9 days, NS vs intact tendon): 7.0 ± 0.5 mg | dry wt ([2]; 9 days, NS vs intact tendon): 14.1 ± 1.2 mg | DNA ([2]; 9 days, p < 0.05 vs intact tendon): 124 ± 10 µg | Collagen ([2]; 15 days, NS vs intact tendon): 7.0 ± 0.3 mg | DNA ([2]; 15 days, NS vs intact tendon): 101 ± 6 µg | Effect on unoperated tendon in the opposite leg ([2]; injected twice daily, throughout the treatment period, possible exception of increased DNA content after nine days): little or no effect | Lesion DNA ([3]; 15 days after surgery, urogastrone days 1-15, 20 ug./kg. twice daily, NS vs saline): 668 ± 32 µg | Lesion dry wt ([3]; 15 days after surgery, urogastrone days 1-15, 20 ug./kg. twice daily, p < 0.001 vs saline): 61.8 ± 1.3 mg | Lesion Collagen ([3]; 15 days after surgery, urogastrone days 1-15, 20 ug./kg. twice daily, p < 0.01 vs saline): 28.1 ± 0.9 mg | Lesion Collagen [3, 10]: 28.7 ± 1.2 mg | Lesion dry wt [3, 10]: 50.2 ± 1.1 mg | Lesion DNA ([3]; 30 days after surgery, urogastrone days 1-15 then 15 days without treatment, p < 0.05 vs saline): 397 ± 17 µg | Lesion DNA ([3]; 30 days after surgery, urogastrone days 1-30, 20 ug./kg. twice daily, NS vs saline): 495 ± 17 µg | Lesion Collagen ([3]; 30 days after surgery, urogastrone days 1-30, 20 ug./kg. twice daily, p < 0.001 vs saline): 32.1 ± 1.3 mg | Lesion dry wt ([3]; 30 days after surgery, urogastrone days 1-30, 20 ug./kg. twice daily, p < 0.01 vs saline): 56.8 ± 2.0 mg | Dry weight and collagen content of the scars versus animals untreated throughout ([3]; dosing stopped after fifteen days, treatment free for a further fifteen days): no longer distinguishable | Collagen content of repair lesion higher than saline-treated control lesions ([3]; thirty days on urogastrone): 27% | DNA contents of urogastrone versus saline-treated lesions ([3]; thirty days on urogastrone): essentially the same | Dry weight of repair lesion higher than saline-treated control lesions ([3]; thirty days on urogastrone): 19% | Collagen contents of the repair lesions ([4]; 20 μg./kg. twice daily): not in the collagen contents | Dry weights of the repair lesions ([4]; 20 μg./kg. twice daily): statistically significant increase | Collagen contents of the repair lesions ([4]; 50 μg./kg. twice daily): significantly increased | Dry weights of the repair lesions ([4]; 50 μg./kg. twice daily): significantly increased | Collagen contents of the repair lesions ([4]; 100 μg./kg. twice daily): significantly increased | Dry weights of the repair lesions ([4]; 100 μg./kg. twice daily): significantly increased | Collagen contents [5]: increased | Dry weight [5]: increased | Acid secretion in the stomach [6]: inhibit acid secretion in the stomach

— US4731357A (Imperial Chemical Industries PLC, priority 1985, dated 1988)
